The subject of the assay is Brassica napus. As to the kind of experiment: Drought stress test on crop plants in greenhouse, spray application, efficacy vs untreated stressed control. The conditions noted are these: dosage 25 g/ha, mean of three results. It counts as in vivo. Here is the method: Seeds of monocotyledonous and dicotyledonous crop plants were laid out in sandy loam in wood-fiber pots, covered with soil and cultivated in a greenhouse under good growth conditions. The test plants were treated at the early leaf stage (BBCH10-BBCH13). To ensure uniform water supply before commencement of stress, the potted plants were supplied with the maximum amount of water immediately beforehand by dam irrigation and, after application, transferred in plastic inserts in order to prevent subsequent, excessively rapid drying. The inventive compounds, formulated in the form of wettable powders (WP), wettable granules (WG), suspension concentrates (SC) or emulsion concentrates (EC), were sprayed onto the green parts of the plants as an aqueous suspension at an equivalent water application rate of 600 l/ha with addition of 0.2% wetting agent (agrotin). Substance application is followed immediately by stress treatment of the plants (cold or drought stress). […]
After the recovery phase had ended, the intensities of damage were rated in visual comparison to untreated, unstressed controls of the same age (in the case of drought stress) or the same growth stage (in the case of cold stress). The intensity of damage was first assessed as a percentage (100%=plants have died, 0%=like control plants). […]

The source of these data is patent US20140051577A1, “SUBSTITUTED 5-(BICYCLO[4.1.0]HEPT-3-EN-2-YL)PENTA-2,4-DIENES AND 5-(BICYCLO[4.1.0]HEPT-3-EN-2-YL)PENT-2-ENE-4-INES AS ACTIVE AGENTS AGAINST ABIOTIC STRESSES IN PLANTS” (priority 2011, published 2014).

As to `CCOC(=O)/C=C(/C)C#CC1(O)C(C)=CC(=O)C2CC21C` (centres unmarked) [I.1-394, Ethyl (2Z)-5-(2-hydroxy-1,3-dimethyl-5-oxobicyclo[4.1.0]hept-3-en-2-yl)-3-methylpent-2-en-4-ynoate], the “EF (BRSNS): efficacy, percentage reduction in the intensity of damage (second table headed TABLE A-1)” value (BRSNS as printed) is on record as above 5%. Also, the “EF (BRSNS): efficacy, percentage reduction in the intensity of damage” value (Brassica napus) is given as above 5%.
